Values joined by “and” are separate entries in the source; they are usually repeats but may differ in a detail not shown here. Identical values can stand only once.
Assays:
FIMMI = test: Example II in-water applied, greenhouse, transplanted paddy rice weeds; assay type: in vivo, Fimbristylis miliacea (L.) Vahl
Procedure: Weed seeds or nutlets of the desired test plant species were planted in puddled soil (mud) prepared by mixing a shredded, non-sterilized mineral soil (50.5 percent silt, 25.5 percent clay, and 24 percent sand, with a pH of about 7.6 and an organic matter content of about 2.9 percent) and water at a 1:1 volumetric ratio. The prepared mud was dispensed in 365 mL aliquots into 16-ounce (oz.) non-perforated plastic pots with a surface area of 86.59 square centimeters (cm^2) leaving a headspace of 3 centimeters (cm) in each pot. Mud was allowed to dry overnight prior to planting or transplanting. Rice seeds were planted in Sun Gro MetroMix® 306 planting mixture, which typically has a pH of 6.0 to 6.8 and an organic matter content of about 30 percent, in plastic plug trays. Seedlings at the second or third leaf stage of growth were transplanted into 860 mL of mud contained in 32-oz. non-perforated plastic pots with a surface area of 86.59 cm^2 4 days prior to herbicide application. The paddy was created by filling the headspace of the pots with 2.5 to 3 cm of water. […] The plants were grown for 4-22 days in a greenhouse with an approximate 14 hr. photoperiod which was maintained at about 29° C. during the day and 26° C. during the night. Nutrients were added as Osmocote® (19:6:12, N:P:K+minor nutrients) at 2 g per 16-oz. pot and 4 g per 32-oz. pot. Water was added on a regular basis to maintain the paddy flood, and supplemental lighting was provided with overhead metal halide 1000-Watt lamps as necessary. The plants were employed for testing when they reached the first through fourth true leaf stage.
Treatments consisted of the acid or esters of 4-amino-3-chloro-5-fluoro-6-(4-chloro-2-fluoro-3-methoxy-phenyl)pyridine-2-carboxylic acid (compound A) each formulated as an SC (suspension concentrate) and various herbicidal components alone and in combination.
For formulated compounds, a measured amount was placed in an individual 100 or 200 mL glass vial and was dissolved in a volume of 1.25% (v/v) Agri-Dex® crop oil concentrate to obtain application solutions.
Applications were made by injecting with a pipetter appropriate amounts of the application solutions, individually and sequentially, into the aqueous layer of the paddy. Control plants were treated in the same manner with the solvent blank. Applications were made so that all treated plant material received the same concentrations of acetone and crop oil concentrate.
The treated plants and control plants were placed in a greenhouse as described above and water was added as needed to maintain a paddy flood. After approximately 3 weeks the condition of the test plants as compared with that of the untreated plants was determined visually and scored on a scale of 0 to 100 percent where 0 corresponds to no injury or growth inhibition and 100 corresponds to complete kill.
Colby's equation was used to determine the herbicidal effects expected from the mixtures (Colby, S. R. 1967. Calculation of the synergistic and antagonistic response of herbicide combinations. Weeds 15:20-22.).
The following equation was used to calculate the expected activity of mixtures containing two active ingredients, A and B: Expected=A+B−(A×B/100)

SCPJU = test: Example I postemergence foliar-applied, greenhouse, direct seeded rice weeds; assay type: in vivo, Schoenoplectus juncoides (Roxb.) Palla
Method in brief: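 Postemergence greenhouse test: SC-formulated Compound A and ACCase-inhibitor partners were applied over-the-top in crop oil concentrate (1.25% v/v) at 187 L/ha. Visual ratings of injury on a 0–100% scale were taken after roughly 3 weeks.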

Row | SMILES | Visual Weed Control (%) - 21 DAA FIMMI Obs (FIMMI; 75 gai/ha) | Visual Weed Control (%) - 21 DAA FIMMI Obs (FIMMI; 150 gai/ha) | Visual Weed Control (%) - 20 DAA SCPJU Obs (SCPJU; 4.38 gae/ha) | Visual Weed Control (%) - 20 DAA SCPJU Obs (SCPJU; 8 gae/ha) | Visual Weed Control (%) - 21 DAA SCPJU Obs (SCPJU; 8 gae/ha) | Visual Weed Control (%) - 20 DAA SCPJU Obs (SCPJU; 8.75 gae/ha) | Visual Weed Control (%) - 20 DAA SCPJU Obs (SCPJU; 16 gae/ha) | Visual Weed Control (%) - 21 DAA FIMMI Obs (FIMMI; 8.75 gae/ha) | Visual Weed Control (%) - 21 DAA FIMMI Obs (FIMMI; 35 gae/ha) | Visual Weed Control (%) - 22 DAA SCPJU Obs (SCPJU; 4.38 gae/ha)
1 | C[C@@H](Oc1ccc(Oc2nc3ccc(Cl)cc3o2)cc1)C(=O)N(C)c1ccccc1F [Metamifop, (2R)-2-[4-[(6-chloro-2-benzoxazolyl)oxy]phenoxy]-N-(2-fluorophenyl)-N-methylpropanamide] | 0% | 0% |  |  |  |  |  |  |  | 
2 | COc1c(Cl)ccc(-c2nc(C(=O)OCc3ccccc3)c(Cl)c(N)c2F)c1F [Compound A Benzyl Ester, benzyl ester of 4-amino-3-chloro-5-fluoro-6-(4-chloro-2-fluoro-3-methoxy-phenyl)pyridine-2-carboxylic acid] |  |  | 30% | 70% | 85% | 60% | 85% |  |  | 
3 | COc1c(Cl)ccc(-c2nc(C(=O)O)c(Cl)c(N)c2F)c1F [Compound A Acid, 4-amino-3-chloro-6-(4-chloro-2-fluoro-3-methoxyphenyl)-5-fluoropyridine-2-carboxylic acid] |  |  | 60% and 70% |  |  | 95% |  | 20% | 85% | 60%

— patent publication US9232796B2, “Herbicidal compositions comprising 4-amino-3-chloro-5-fluoro-6-(4-chloro-2-fluoro-3-methoxyphenyl) pyridine-2-carboxylic acid or a derivative thereof and acetyl-CoA carboxylase (ACCase) inhibitors” (DOW AGROSCIENCES LLC, priority 2012, dated 2016)
